Measurements reported in PubChem BioAssay AID2060912 (Molecular Pharmacology Branch, DTP, NCI, 2025).

System: HUVEC/MSC spheroids viability
Assay: Human HUVEC/MSC cell line growth inhibition [KRAS2];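 on viability, T/C: percent of DMSO vehicle control luminescence so 100% = untreated viability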
Details: for IC50: curve of first compound; for viability, T/C: stronger effect = lower value
Procedure, shortened: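 Stroma-only multicellular spheroids, formed from HUVEC and human MSCs at passages </=5, received RAS-pathway inhibitors with or without a second targeted drug. Dosing followed half-log dilutions from clinically achievable levels.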

CC(=O)Nc1cccc(-n2c(=O)n(C3CC3)c(=O)c3c(Nc4ccc(I)cc4F)n(C)c(=O)c(C)c32)c1 + CC1OCC2(CCN(c3cnc(Sc4ccnc(N)c4Cl)c(N)n3)CC2)C1N gave an IC50 (second compound 0.0316 µM) of 18.1 nM, an IC50 (second compound 0.1 µM) of 15.9 nM and an IC50 (second compound 0.316 µM) of 16.2 nM. The IC50 (second compound 1 µM) was 5.18 nM, the IC50 (second compound 3.16 µM) was 1.27 nM and the IC50 (second compound 10 µM) was < 0.0949 nM. For the same molecule, the viability, T/C (second compound 0.0316 µM, first compound 94.9 pM) was 110%, the viability, T/C (second compound 0.0316 µM, first compound 0.0003 µM) was 142% and the viability, T/C (second compound 0.0316 µM, first compound 0.000949 µM) was 113%. The viability, T/C (second compound 0.0316 µM, first compound 0.003 µM) was 118%, the viability, T/C (second compound 0.0316 µM, first compound 0.00949 µM) was 82.6% and the viability, T/C (second compound 0.0316 µM, first compound 0.03 µM) was 24.4%. It also gave a viability, T/C (second compound 0.1 µM, first compound 94.9 pM) of 118%, a viability, T/C (second compound 0.1 µM, first compound 0.0003 µM) of 106% and a viability, T/C (second compound 0.1 µM, first compound 0.000949 µM) of 104%. For the same molecule, the viability, T/C (second compound 0.1 µM, first compound 0.003 µM) was 89.2%, the viability, T/C (second compound 0.1 µM, first compound 0.00949 µM) was 77.5% and the viability, T/C (second compound 0.1 µM, first compound 0.03 µM) was 21.9%. It also gave a viability, T/C (second compound 0.316 µM, first compound 94.9 pM) of 92.7%, a viability, T/C (second compound 0.316 µM, first compound 0.0003 µM) of 95.2% and a viability, T/C (second compound 0.316 µM, first compound 0.000949 µM) of 87.9%. It also gave a viability, T/C (second compound 0.316 µM, first compound 0.003 µM) of 81.8%, a viability, T/C (second compound 0.316 µM, first compound 0.00949 µM) of 74.5% and a viability, T/C (second compound 0.316 µM, first compound 0.03 µM) of 24.3%. For the same molecule, the viability, T/C (second compound 1 µM, first compound 94.9 pM) was 85.6%, the viability, T/C (second compound 1 µM, first compound 0.0003 µM) was 75.1% and the viability, T/C (second compound 1 µM, first compound 0.000949 µM) was 69.1%. For the same molecule, the viability, T/C (second compound 1 µM, first compound 0.003 µM) was 55.7%, the viability, T/C (second compound 1 µM, first compound 0.00949 µM) was 46% and the viability, T/C (second compound 1 µM, first compound 0.03 µM) was 10.9%. The viability, T/C (second compound 3.16 µM, first compound 94.9 pM) was 71.2%, the viability, T/C (second compound 3.16 µM, first compound 0.0003 µM) was 69.5% and the viability, T/C (second compound 3.16 µM, first compound 0.000949 µM) was 49.7%. For the same molecule, the viability, T/C (second compound 3.16 µM, first compound 0.003 µM) was 39.9%, the viability, T/C (second compound 3.16 µM, first compound 0.00949 µM) was 22.7% and the viability, T/C (second compound 3.16 µM, first compound 0.03 µM) was 3.47%. The viability, T/C (second compound 10 µM, first compound 94.9 pM) was 48.7%, the viability, T/C (second compound 10 µM, first compound 0.0003 µM) was 39% and the viability, T/C (second compound 10 µM, first compound 0.000949 µM) was 33.3%. The viability, T/C (second compound 10 µM, first compound 0.003 µM) was 12.5%, the viability, T/C (second compound 10 µM, first compound 0.00949 µM) was 5.14% and the viability, T/C (second compound 10 µM, first compound 0.03 µM) was 0.77%.
COC(=O)c1ccc2c(C(=Nc3ccc(N(C)C(=O)CN4CCN(C)CC4)cc3)c3ccccc3)c(O)[nH]c2c1 + CC1OCC2(CCN(c3cnc(Sc4ccnc(N)c4Cl)c(N)n3)CC2)C1N gave an IC50 (second compound 0.0316 µM) of 1550 nM, an IC50 (second compound 0.1 µM) of 1180 nM and an IC50 (second compound 0.316 µM) of 620 nM. The IC50 (second compound 1 µM) was 623 nM, the IC50 (second compound 3.16 µM) was 528 nM and the IC50 (second compound 10 µM) was 353 nM. For the same molecule, the viability, T/C (second compound 0.0316 µM, first compound 0.0316 µM) was 112%, the viability, T/C (second compound 0.0316 µM, first compound 0.1 µM) was 111% and the viability, T/C (second compound 0.0316 µM, first compound 0.316 µM) was 89.7%. It also gave a viability, T/C (second compound 0.0316 µM, first compound 1 µM) of 52.6%, a viability, T/C (second compound 0.0316 µM, first compound 3.16 µM) of 38.8% and a viability, T/C (second compound 0.0316 µM, first compound 10 µM) of 2.26%. The viability, T/C (second compound 0.1 µM, first compound 0.0316 µM) was 94.1%, the viability, T/C (second compound 0.1 µM, first compound 0.1 µM) was 106% and the viability, T/C (second compound 0.1 µM, first compound 0.316 µM) was 77%. For the same molecule, the viability, T/C (second compound 0.1 µM, first compound 1 µM) was 47.8%, the viability, T/C (second compound 0.1 µM, first compound 3.16 µM) was 32% and the viability, T/C (second compound 0.1 µM, first compound 10 µM) was 0.33%. For the same molecule, the viability, T/C (second compound 0.316 µM, first compound 0.0316 µM) was 108%, the viability, T/C (second compound 0.316 µM, first compound 0.1 µM) was 82% and the viability, T/C (second compound 0.316 µM, first compound 0.316 µM) was 73.4%. For the same molecule, the viability, T/C (second compound 0.316 µM, first compound 1 µM) was 34.9%, the viability, T/C (second compound 0.316 µM, first compound 3.16 µM) was 16.6% and the viability, T/C (second compound 0.316 µM, first compound 10 µM) was 1.89%. The viability, T/C (second compound 1 µM, first compound 0.0316 µM) was 74.3%, the viability, T/C (second compound 1 µM, first compound 0.1 µM) was 72.8% and the viability, T/C (second compound 1 µM, first compound 0.316 µM) was 74.2%. It also gave a viability, T/C (second compound 1 µM, first compound 1 µM) of 33.4%, a viability, T/C (second compound 1 µM, first compound 3.16 µM) of 0.59% and a viability, T/C (second compound 1 µM, first compound 10 µM) of 0.29%. For the same molecule, the viability, T/C (second compound 3.16 µM, first compound 0.0316 µM) was 69.4%, the viability, T/C (second compound 3.16 µM, first compound 0.1 µM) was 73.3% and the viability, T/C (second compound 3.16 µM, first compound 0.316 µM) was 64.5%. The viability, T/C (second compound 3.16 µM, first compound 1 µM) was 30.9%, the viability, T/C (second compound 3.16 µM, first compound 3.16 µM) was 0.39% and the viability, T/C (second compound 3.16 µM, first compound 10 µM) was 0.29%. The viability, T/C (second compound 10 µM, first compound 0.0316 µM) was 63.5%, the viability, T/C (second compound 10 µM, first compound 0.1 µM) was 61.1% and the viability, T/C (second compound 10 µM, first compound 0.316 µM) was 53.8%. For the same molecule, the viability, T/C (second compound 10 µM, first compound 1 µM) was 14.7%, the viability, T/C (second compound 10 µM, first compound 3.16 µM) was 0.37% and the viability, T/C (second compound 10 µM, first compound 10 µM) was 0.38%.
